These results are taken from patent EP0007880B1, “Medicines containing as active ingredients compounds of the benzene-sulfone type; compounds of this type and process for their preparation” (CHOAY S.A., priority 1978, dated 1980).

The subject of data set [1] is rats Wistar mâles. Kind of data set: Normolipemic and/or hypoglycemic activity in Triton W.R.-induced hyperlipidemia in fasted rats. The note with it: fasted rats given Triton W.R. 200mg/kg i.v.; for Cholestérol Estérifié / Cholestérol Total / Glucose / Lipides totaux / Trigly-cérides: product given simultaneously, i.p. 100 mg/kg or oral 500 mg/kg (route not stated per product), blood sampled six hours later; for Cholestérol Rapport E/T: ratio esterified/total cholesterol, product i.p. 100 mg/kg or oral 500 mg/kg, six hours later. The format is in vivo. Also on record: Cholestérol Total / Cholestérol Estérifié / Trigly-cérides: unit not given here. On the procedure:
Les essais sont réalisés sur des groupes de 5 rats Wistar mâles (150 à 175g). Les produits testés sont administrés soit par voie intrapéritonéale, à raison de 100 mg/kg dans du soluté isotonique, soit par voie orale, en solution aqueuse à 3% de gomme adragante (1 ml/100g de poids corporel) en quantité correspondant à 500 mg/kg.
Pour ces essais, on provoque une hyperlipidémie chez les animaux au moyen du produit commercialisé par la Société ROHM et HAAS sous le nom de Triton W.R. Chez le rat à jeun, l'injection intraveineuse de Triton entraine une hyperlipidémie particulièrement nette pour les triglycérides .et de façon moindre pour les lipides totaux.
Cette hyperlipidémie est combattue par l'action des substances actives selon l'invention.
Le protocole de l'essai est le suivant. Les rats sont mis à jeûner pendant 18 heures. Le Triton W.R. est administré par voie intraveineuse en solution aqueuse à 10% à raison de 200mg/kg.
Simultanément, les rats reçoivent les produits à tester. Six heures plus tard, on effectue les dosages de façon traditionnelle sur des échantillons sanguins.

In data set [2] the test system is souris Swiss. Kind of data set: Acute toxicity in mice (lethal dose 50, Behrens and Karber). The format is in vivo. The note with it: dose 1,5g/kg, voie intrapéritonéale; mice observed 8 days.

With `CC(C)(O)CS(=O)(=O)c1ccccc1` [Exemple 19], in data set [1], the “Cholestérol Estérifié” value was 1,09, the “Cholestérol Total” value is reported as 2,04, the Glucose is on record as 0,78 g/l and the Lipides totaux is 7,62 g/l. Further, in data set [1], the Trigly-cérides is 2,84 and the “Cholestérol Rapport E/T” value was 55,6.
`CCC(C)(O)CS(=O)(=O)c1ccccc1` (stereo not shown) [Exemple 20]: in data set [1], the “Cholestérol Estérifié” value is 1,64, the “Cholestérol Total” value is on record as 2,20, the Glucose was 0,84 g/l and the Lipides totaux is recorded as 7,36 g/l. In data set [1], the Trigly-cérides is reported as 2,07 and the “Cholestérol Rapport E/T” value is given as 76,8.
In the case of `O=S(=O)(CC1(O)CCCCC1)c1ccccc1` [Exemple 21], in data set [1], the “Cholestérol Estérifié” value was 2,06, the “Cholestérol Total” value is listed as 3,09, the Glucose is recorded as 0,89 g/l and the Lipides totaux was 9,56 g/l. In addition, in data set [1], the Trigly-cérides is 2,23 and the “Cholestérol Rapport E/T” value is listed as 66,0.
`O=S(=O)(CC(O)c1ccccc1)c1ccccc1` (stereo not shown) [Exemple 22]: in data set [1], the “Cholestérol Estérifié” value is on record as 1,89, the “Cholestérol Total” value is recorded as 2,28, the Glucose is 1,18 g/l and the Lipides totaux is 8,50 g/l. Further, in data set [1], the Trigly-cérides is given as 3,95 and the “Cholestérol Rapport E/T” value was 82,4.
In the case of `O=S(=O)(CC(O)c1ccc(Cl)cc1)c1ccccc1` (stereo not shown) [Exemple 23], the “animaux encore en vie” value in data set [2] was 5 animaux sur 5 sont encore en vie.
For the compound `O=S(=O)(CC(O)c1ccc(F)cc1)c1ccccc1` (stereo not shown) [Exemple 24], in data set [1], the “Cholestérol Estérifié” value is on record as 0,98, the “Cholestérol Total” value is 1,48, the Glucose was 1,12 g/l and the Lipides totaux was 15,30 g/l. Besides, in data set [1], the Trigly-cérides is listed as 1,80 and the “Cholestérol Rapport E/T” value is listed as 69,40.
Regarding `CC(C(O)(c1ccccc1)c1ccccc1)S(=O)(=O)c1ccccc1` (stereo not shown) [Exemple 27], the “animaux encore en vie” value in data set [2] was 5 animaux sur 5 sont encore en vie.
For `O=S(=O)(CC(O)c1ccccc1)c1ccc(F)cc1` (stereo not shown) [Exemple 28], in data set [1], the “Cholestérol Estérifié” value was 0,66, the “Cholestérol Total” value is listed as 1,24, the Glucose is listed as 1,22 g/l and the Lipides totaux is recorded as 6,0 g/l. In data set [1], the Trigly-cérides is listed as 4,31 and the “Cholestérol Rapport E/T” value is recorded as 54,4.
For the compound `O=S(=O)(CC1(O)CCCCC1)c1ccc(F)cc1` [Exemple 32], in data set [1], the “Cholestérol Estérifié” value is 0,73, the “Cholestérol Total” value is given as 1,14, the Glucose is 0,92 g/l and the Lipides totaux is on record as 10,99 g/l. Moreover, in data set [1], the Trigly-cérides is 4,00 and the “Cholestérol Rapport E/T” value was 65,17.
For the compound `O=S(=O)(CCCO)c1ccccc1` [Exemple 40], in data set [1], the “Cholestérol Estérifié” value is listed as 0,99, the “Cholestérol Total” value was 1,56, the Glucose is reported as 0,93 g/l and the Lipides totaux is 3,76 g/l. Also, the “Cholestérol Rapport E/T” value in data set [1] is given as 61,2.
In the case of `CC(C)(Oc1ccc(Cl)cc1)C(=O)OCCCS(=O)(=O)c1ccccc1` [Exemple 47], in data set [1], the “Cholestérol Estérifié” value is recorded as 0,90, the “Cholestérol Total” value is listed as 1,52, the Glucose is on record as 0,97 g/l and the Lipides totaux was 10,28 g/l. For the same compound, in data set [1], the Trigly-cérides is 4,56 and the “Cholestérol Rapport E/T” value is listed as 59,99.
